Assay results taken from patent US20090312414A1, “Treatment Of Lower Urinary Tract Dysfunction With CB2-Receptor-Selective Agonists” (priority 2008, published 2009).

Legend:
CB1 receptor = CB1 receptor (Homo sapiens, UniProt P21554); test: biochemical; assay type: binding; conditions: displaces 50% of a radiolabeled agonist
CB2 receptor = CB2 receptor (Homo sapiens, UniProt P34972); test: CB2 binding assay (displacement of radiolabeled agonist); conditions: for IC50: displaces 50% of a radiolabeled agonist
CB2 receptor, sequence (P34972 whole entry): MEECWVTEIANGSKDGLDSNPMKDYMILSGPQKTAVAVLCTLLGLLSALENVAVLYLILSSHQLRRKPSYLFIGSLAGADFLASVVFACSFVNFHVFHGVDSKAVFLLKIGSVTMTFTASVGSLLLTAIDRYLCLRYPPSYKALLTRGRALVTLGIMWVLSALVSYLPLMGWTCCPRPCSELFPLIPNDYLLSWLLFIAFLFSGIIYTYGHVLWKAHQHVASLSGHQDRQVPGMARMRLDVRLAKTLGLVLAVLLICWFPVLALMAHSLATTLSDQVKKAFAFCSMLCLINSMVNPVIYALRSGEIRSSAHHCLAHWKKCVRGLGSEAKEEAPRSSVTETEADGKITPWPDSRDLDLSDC

[1] = tested on: urethane-anesthetized rats, acetic acid model; test: Cystometry in acetic acid bladder hyperactivity model; assay type: in vivo, rat; conditions: for Effect on intercontraction interval (ICI): any tested dose i.v., 20, 40 or 60 min after administration
Procedure: As used herein, the term “acute” means that the animals were dosed only one time, 30 minutes prior to taking the cystometry measurements (i.e., 30 minutes prior to the observation period). The acetic acid-induced model is an irritative model in which increased micturition frequency (decreased micturition interval) and reduced bladder capacity cystometry may be obtained after an intravesical infusion of a dilute solution of acetic acid (McMurray G, Casey J H, Naylor A M. Animal models in urological disease and sexual dysfunction. Br J Pharmacol. 2006; 147 Suppl:S62; Kakizaki H, de Groat W C. Role of spinal nitric oxide in the facilitation of the micturition reflex by bladder irritation. J Urol 1996; 155:355).
Adult female Wistar rats (Janvier, Le Genest Saint Lisles, France), weighing 225-250 g were used. They were delivered to the laboratory at least 5 days before the experiments in order to be acclimatized to laboratory conditions, and were given food (Teklad Global 16% Protein Rodent Diet, Harlan, Gannat, France) and water ad libitum. The animal room was maintained at 21-24° C. with a 12/12 hours alternating light-dark cycle (light phase 07:00-19:00).
Rats were anesthetized by intraperitoneal injection of urethane (1.5 g/kg). After making a midline incision of the abdomen, a polyethylene catheter (0.3 mm ID and 0.7 mm OD) was implanted in the bladder through the dome. An IV catheter (0.58 mm ID and 0.96 mm OD) was also introduced into a jugular vein for test substance administration.
CB2-receptor-selective agonists (compounds of Formulas II, III and IV) were initially dissolved in a vehicle containing a co-solvent mixture of Cremophor EL® (70%, BASF Corporation, Florham Park, N.J.) and ethanol (30%) as a 20-fold concentrated stock solution of the highest dose for testing. For lower doses, individual 20× stock solutions in Cremophor EL® (70%) and ethanol (30%) were also prepared by further dilution of the original 20× stock solution. Just prior to use, the appropriate 20× compound stock solution or vehicle was diluted 1:20 dilution (v:v) with saline to give the appropriate final concentration for dosing, and a single test substance or its vehicle were administered intravenously in a volume of 5 ml/kg and at an infusion rate of 0.2 ml/min.
Cystometric investigations were performed in the urethane anesthetized rats after bladder and jugular vein catheter implantation surgery. The bladder catheter was connected via a T-tube to a MX 860 Novatrans III Gold strain gauge (Medex Medical SARL, Nantes-Carquefou, France) and to a single-syringe infusion pump (70-2208 Model II Plus, Harvard Apparatus; Les Ulis, France). Physiological saline or 0.2% acetic acid (AA) in saline was infused into the bladder at a constant flow rate (0.05 ml/min), and intravesical pressure was recorded continuously using a MacLab/8e interface (ADInstruments Pty Ltd., Castle Hill, Australia) and the Chart software program. After a control period of 30 minutes (to calculate basal values), a single test substance or its vehicle were administered IV and the intravesical pressure was recorded for 1 hour after compound administration.
Intravesical pressure data were analyzed with Microsoft Excel software. The micturition parameters measured were the following: Basal Pressure (“BP,” mmHg); Threshold Pressure (“ThP,” pressure at which micturition occurs, mmHg); Amplitude of Micturition (“AM,” pressure between ThP and Micturition Pressure, mmHg); Intercontraction Interval (“ICI,” time between two subsequent micturitions, sec); Micturition Frequency (“MF,” number of micturition contractions per 15 minute interval); and Area Under the Curve (“AUC” per 15 minute interval, mmHg·sec) was calculated from the lowest intravesical pressure value during the 15 minute interval. Bladder capacity (“BC”) was measured in ml.
For each rat, basal values for each parameter were calculated as the mean of the last four micturitions before vehicle or test substance administration. […]

CB1 receptor, sequence (P21554 whole entry): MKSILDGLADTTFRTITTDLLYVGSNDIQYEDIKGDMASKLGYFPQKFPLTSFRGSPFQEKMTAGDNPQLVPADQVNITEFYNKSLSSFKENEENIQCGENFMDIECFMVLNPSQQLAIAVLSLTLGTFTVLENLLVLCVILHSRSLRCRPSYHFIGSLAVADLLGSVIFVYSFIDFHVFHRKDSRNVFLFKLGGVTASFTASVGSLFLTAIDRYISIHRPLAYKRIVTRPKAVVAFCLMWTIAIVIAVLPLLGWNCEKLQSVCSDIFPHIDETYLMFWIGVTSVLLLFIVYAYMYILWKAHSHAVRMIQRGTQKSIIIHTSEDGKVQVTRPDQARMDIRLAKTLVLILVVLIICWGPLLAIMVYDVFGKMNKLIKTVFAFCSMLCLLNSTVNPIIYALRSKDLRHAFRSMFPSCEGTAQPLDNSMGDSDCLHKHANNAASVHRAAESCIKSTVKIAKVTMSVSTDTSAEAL

| SMILES | IC50 (CB1 receptor) [µM] | CB2/CB1 affinity ratio (CB2 receptor) | IC50 (CB2 receptor) [µM] | Effect on threshold pressure (ThP) ([1]; 3 mg/kg i.v., all time points, vs basal values) | Effect on basal pressure (BP) ([1]; 3 mg/kg i.v., from 0 to 60 min, p<0.05) | Effect on intercontraction interval (ICI) ([1]; vs basal values) | Effect on threshold pressure (ThP) ([1]; 15 mg/kg i.v., at 20 min, vs basal values) | Effect on basal pressure (BP) ([1]; any dose (1.5, 5, 15 mg/kg i.v.) or time point, vs basal values) | Effect on threshold pressure (ThP) ([1]; 0.5 mg/kg i.v., at 20, 40 and 60 min, p<0.05) | Effect on threshold pressure (ThP) ([1]; 1.5 mg/kg i.v., at 40 min, p<0.05) | Effect on threshold pressure (ThP) ([1]; 5 mg/kg i.v., at 20 and 40 min, p<0.05) | Effect on basal pressure (BP) ([1]; 5 mg/kg i.v., at 20 min, p<0.05) |
| --- | --- | --- | --- | --- | --- | --- | --- | --- | --- | --- | --- | --- |
| CCCCCCC(C)(C)c1cc(O)c2c(c1)OC1CCCCCC21 (centres unmarked) [Formula III] | 0.092 | 14 | 0.0065 | significantly increased | significantly increased | no effect | – | – | – | – | – | – |
| O=S(=O)(NCC1CC1)c1ccc(Nc2ccc(Cl)cc2Cl)cc1C(F)(F)F [Formula IV, N-Cyclopropylmethyl-4-(2,4-dichloro-phenylamino)-2-trifluoromethyl-benzenesulfonamide] | 0.313 | 10 | 0.03 | – | – | no effect | significant increase | not changed | – | – | – | – |
| CCCCC(C)(C)c1cc(O)c([C@H]2C=C(CO)[C@H]3C[C@@H]2C3(C)C)c(O)c1 [Formula II] | 0.181 | 21 | 0.0084 | – | – | no effect | – | – | Significant increases | Significant increases | Significant increases | significantly increased |
